# Laboratory results reported in article PMC10689823, “Discovery of a Drug-like, Natural Product-Inspired DCAF11 Ligand Chemotype” (Nature Communications, 2023).
# Values joined by “and” are separate entries in the source; they are usually repeats but may differ in a detail not shown here. Equal entries are not always repeated.
# System: BRD2
# Experiment: In-Cell Western for BRD2 levels in Hep G2 cells
# Assay type: cell-based
# Details: then 9 (10 μM, 4 h); for Value (Mean ± SD): Relative BRD2 levels remaining in Hep G2 cells after treatment with compounds followed by treatment with 9, with DMSO control for normalization: qualitative ICW assay, Supplementary Table 1; for BRD2/Vinculin intensity (relative to control group): Hep G2 cells, single repeats, Fig. 4h
# Description: Hep G2 cells were seeded in 96-well plates and incubated for 24 h. Compounds were added for the indicated time at the indicated concentration. Cells were then washed once with PBS and fixed with 4% paraformaldehyde for 30 min at room temperature. The fixed cells were permeabilized with 0.5 % Triton-X100 for 15 min followed by block with Intercept® Blocking Buffer (LI-COR Biosciences, 927-70001) for 1 h at room temperature. Primary antibodies for BRD2 (1:800) and Vinculin (1:2000) were diluted with LI-COR buffer and incubated with the cells at 4 °C overnight. Cells were washed with PBS-T, and the secondary antibodies conjugated to IRDye (1:1000, LI-COR Biosciences) were added to the cells for 1 h at room temperature. After washing the cells, the signal was recorded with the Odyssey® CLx Infrared Imaging System (LI-COR Biosciences) and the protein levels were analyzed by Image Studio (LI-COR Biosciences). BRD2 protein levels were normalized to the levels of reference protein vinculin.
# [1] = pretreated with compound at 30 μM 1 h
Compound,"Value (Mean ± SD): Relative BRD2 levels remaining in Hep G2 cells after treatment with compounds followed by treatment with 9, with DMSO control for normalization (pretreated at 30 μM 1 h)",BRD2/Vinculin intensity (relative to control group) [1],BRD2/Vinculin intensity (relative to control group) (pretreated with MLN4924 at 1 μM 1 h),"Value (Mean ± SD): Relative BRD2 levels remaining in Hep G2 cells after treatment with compounds followed by treatment with 9, with DMSO control for normalization (MLN4924 at 1 μM 1 h)"
O=C1Nc2cc(Br)ccc2C1=Cc1cc(Br)c(OCCO)c(Br)c1 [Compound 46],70.23 ± 9.63,–,–,–
COc1cc(C=C2C(=O)N(C(C)=O)c3ccc(Br)cc32)c(Br)cc1OC(C)=O [Compound 37],46.27 ± 6.95,55.6586 and 50.2433 and 39.6211 and 39.558,–,–
Cc1cc(C=C2C(=O)Nc3cc(Cl)ccc32)c(C)n1-c1ccc(Cl)cc1 [Compound 20],23.05 ± 3.61,18.6668 and 28.7239 and 22.4508 and 22.3561,–,–
"NS(=O)(=O)OC[C@@H]1C[C@@H](n2ccc3c(N[C@H]4CCc5ccccc54)ncnc32)C[C@@H]1O [MLN4924, reference compound]",–,–,108.675 and 116.153 and 114.111,112.98 ± 3.16
O=C1Nc2cc(Cl)c(Cl)cc2C1=Cc1cc(Br)c(OCCO)c(Br)c1 [Compound 33],38.55 ± 3.55,39.4036 and 41.0431 and 32.5156 and 41.2316,–,–
CC(=O)N1C(=O)C(=Cc2cc(Br)c(OCCO)c(Br)c2)c2cc(Br)ccc21 (mixture of isomers) [Compound 40],49.83 ± 3.84,50.1992 and 43.5119 and 52.0339 and 53.5687,–,–
CCOc1cccc(C=C2C(=O)Nc3ccc(Br)cc32)c1O [Compound 34],38.78 ± 7.19,32.5833 and 35.4683 and 36.0421 and 51.0354,–,–
COc1cc2c(cc1OC)C(=CC=Cc1ccc(N(C)C)cc1)C(=O)N2 [Compound 29],31.86 ± 2.35,35.199 and 32.8298 and 30.2931 and 29.1162,–,–
O=C1Nc2ccc(Br)cc2C1=Cc1ccc(-c2ccc(Cl)cc2)o1 [Compound 24],32.30 ± 3.56,33.2997 and 37.4269 and 27.7324 and 30.7224,–,–
O=C1Nc2ccc(Br)cc2C1=Cc1ccc2ccccc2n1 [Compound 26],38.97 ± 1.11,39.8782 and 39.8556 and 38.9972 and 37.1452,–,–
CCOC(=O)c1ccc(-c2ccc(C=C3C(=O)Nc4ccc(Br)cc43)o2)cc1 [Compound 25],32.83 ± 1.96,36.1651 and 31.9974 and 32.0528 and 31.1097,–,–
Cc1cccc(-n2c(C=C3C(=O)Nc4ccc(Br)cc43)nc3ccccc3c2=O)c1 [Compound 23],28.93 ± 2.95,33.3864 and 29.794 and 26.5816 and 25.9636,–,–
O=C1C(=Cc2cc(Br)c(OCCO)c(Br)c2)c2ccccc2N1c1ccccc1 [Compound 47],72.76 ± 4.44,–,–,–
COc1cc(C)c(C=C2C(=O)Nc3ccccc32)cc1C [Compound 31],36.20 ± 1.35,36.8879 and 36.7406 and 37.2822 and 33.8929,–,–
CCOc1ccc(Br)c(C=C2C(=O)Nc3ccc(Br)cc32)c1 [Compound 30],36.18 ± 4.38,30.1563 and 42.48 and 35.4039 and 36.6749,–,–
COc1cc(OC)c(OC)cc1C=C1C(=O)Nc2ccc(Br)cc21 [Compound 32],38.22 ± 2.33,37.3799 and 42.1343 and 35.9887 and 37.382,–,–
CN1C(=O)C(=Cc2cc(Br)c(OCCO)c(Br)c2)c2cc(Br)ccc21 (mixture of isomers) [Compound 45],67.69 ± 4.30,68.8291 and 61.2096 and 73.2245 and 67.5028,–,–
COc1cc(C=C2C(=O)Nc3ccc(Br)cc32)cc(OC)c1OC [Compound 38],46.38 ± 2.20,42.8563 and 47.1155 and 46.6713 and 48.8801,–,–
COc1cc2c(cc1OC)C(=Cc1ccc(OC)c(OC)c1OC)C(=O)N2 [Compound 35],43.80 ± 10.34,–,–,–
O=C1Nc2c(Br)cccc2C1=Cc1cc(Br)c(OCCO)c(Br)c1 [Compound 44],57.04 ± 9.16,58.0241 and 42.9089 and 68.5528 and 58.6725,–,–
O=C1Nc2ccc([N+](=O)[O-])cc2C1=Cc1cc(Br)c(OCCO)c(Br)c1 [Compound 41],51.57 ± 11.55,35.3006 and 58.464 and 60.939,–,–
O=C1Nc2cc(Cl)ccc2C1=Cc1c[nH]c2ccc(Br)cc12 [Compound 19],22.45 ± 2.48,19.139 and 23.0411 and 26.0065 and 21.6242,–,–
CCOc1c(O)ccc(C=C2C(=O)Nc3ccc(Br)cc32)c1[N+](=O)[O-] [Compound 39],46.41 ± 4.18,52.2917 and 48.4313 and 42.763 and 42.1712,–,–
CCn1cc(C=C2C(=O)N(C)c3ccccc32)c2ccccc21 [Compound 22],28.31 ± 1.06,27.5998 and 30.1143 and 27.5093 and 28.0162,–,–
Cc1ccc(C=C2C(=O)Nc3ccc(Br)cc32)o1 [Compound 21],27.96 ± 5.89,35.3621 and 27.9558 and 29.5667 and 18.9355,–,–
O=C1Nc2cccc(Br)c2C1=Cc1cc(Br)c(OCCO)c(Br)c1 [Compound 43],55.89 ± 8.40,65.9619 and 44.3044 and 51.8651 and 61.4106,–,–
COc1cccc(C=C2C(=O)Nc3ccc(Br)cc32)c1OCc1ccccc1 [Compound 27],25.66 ± 3.60,30.4848 and 27.4717 and 21.0618 and 23.6161,–,–
COc1cc(C=C2C(=O)Nc3ccc(Br)cc32)ccc1O [Compound 36],44.21 ± 2.82,48.1488 and 40.4194 and 43.1435 and 45.121,–,–
O=C1Nc2ccccc2C1=CC=Cc1ccccc1 [Compound 28],27.19 ± 3.29,22.3518 and 31.2898 and 26.3948 and 28.7193,–,–
